Structures are written as SMILES.

In the first test the test system is HOP-62. Nature of the test: relative viability (nuclei count vs DMSO), 5 days (fraction); higher = more cells survive. As to conditions: first compound 0.253 µM. The method in brief: (§1)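 Each reported value is a median over duplicate plates. It expresses relative viability: treated-well nuclei count divided by vehicle-well nuclei count. Lung cancer cell lines in 1536-well plates were dosed by pin tool a day after seeding, alone with one drug or with a fixed anchor-drug dose plus five library-drug doses (not always all listed) in √10 steps, and nuclei were counted after 5 days.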
Take `Oc1nc(-c2ccc(C(F)(F)F)cc2)nc2c1CSCC2` [XAV939] + CC(=O)c1c(C)c2cnc(Nc3ccc(N4CCNCC4)cn3)nc2n(C2CCCC2)c1=O [Palbociclib] (partner 0.5 µM): the relative viability is 0.4.

With `C=C1C(=O)O[C@@H](CCCCCCCC)[C@@H]1C(=O)O` [C-75] + CC(=O)c1c(C)c2cnc(Nc3ccc(N4CCNCC4)cn3)nc2n(C2CCCC2)c1=O [Palbociclib] (partner 0.5 µM), the relative viability is 0.431.

`C=C1C(=O)O[C@@H](CCCCCCCC)[C@@H]1C(=O)O` [C-75] + Nc1ncn([C@H]2C[C@H](O)[C@@H](CO)O2)c(=O)n1 [Decitabine] (partner 2 µM) returned a relative viability of 0.217.

The same test, now with this note: first compound 0.8 µM.
Compound `Oc1nc(-c2ccc(C(F)(F)F)cc2)nc2c1CSCC2` [XAV939] + O=C(CCCCCCC(=O)Nc1ccccc1)NO [Vorinostat] (partner 1 µM) came in with a relative viability of 0.501.

Compound `Oc1nc(-c2ccc(C(F)(F)F)cc2)nc2c1CSCC2` [XAV939] + O=C(c1cc(Cc2n[nH]c(=O)c3ccccc23)ccc1F)N1CCN(C(=O)C2CC2)CC1 [Olaparib] (partner 8 µM) had a relative viability of 0.502.

`Oc1nc(-c2ccc(C(F)(F)F)cc2)nc2c1CSCC2` [XAV939] + CC(=O)c1c(C)c2cnc(Nc3ccc(N4CCNCC4)cn3)nc2n(C2CCCC2)c1=O [Palbociclib] (partner 0.5 µM) yielded a relative viability of 0.378.

For `C=C1C(=O)O[C@@H](CCCCCCCC)[C@@H]1C(=O)O` [C-75] + CC(=O)c1c(C)c2cnc(Nc3ccc(N4CCNCC4)cn3)nc2n(C2CCCC2)c1=O [Palbociclib] (partner 0.5 µM), the relative viability was 0.484.

Take `C=C1C(=O)O[C@@H](CCCCCCCC)[C@@H]1C(=O)O` [C-75] + Nc1ncn([C@H]2C[C@H](O)[C@@H](CO)O2)c(=O)n1 [Decitabine] (partner 2 µM): the relative viability worked out at 0.218.

The same test, now with this note: first compound 2.53 µM.
For the compound `Oc1nc(-c2ccc(C(F)(F)F)cc2)nc2c1CSCC2` [XAV939] + O=C(CCCCCCC(=O)Nc1ccccc1)NO [Vorinostat] (partner 1 µM), the relative viability came to 0.311.

`Oc1nc(-c2ccc(C(F)(F)F)cc2)nc2c1CSCC2` [XAV939] + O=C(c1cc(Cc2n[nH]c(=O)c3ccccc23)ccc1F)N1CCN(C(=O)C2CC2)CC1 [Olaparib] (partner 8 µM) returned a relative viability of 0.371.

`Oc1nc(-c2ccc(C(F)(F)F)cc2)nc2c1CSCC2` [XAV939] + CC(=O)c1c(C)c2cnc(Nc3ccc(N4CCNCC4)cn3)nc2n(C2CCCC2)c1=O [Palbociclib] (partner 0.5 µM) showed a relative viability of 0.313.

Regarding `C=C1C(=O)O[C@@H](CCCCCCCC)[C@@H]1C(=O)O` [C-75] + CC(=O)c1c(C)c2cnc(Nc3ccc(N4CCNCC4)cn3)nc2n(C2CCCC2)c1=O [Palbociclib] (partner 0.5 µM), the relative viability stood at 0.361.

For the compound `C=C1C(=O)O[C@@H](CCCCCCCC)[C@@H]1C(=O)O` [C-75] + Nc1ncn([C@H]2C[C@H](O)[C@@H](CO)O2)c(=O)n1 [Decitabine] (partner 2 µM), the relative viability came to 0.23.

Staying with this test, now noted: first compound 8 µM.
`C=C1C(=O)O[C@@H](CCCCCCCC)[C@@H]1C(=O)O` [C-75] + CC(=O)c1c(C)c2cnc(Nc3ccc(N4CCNCC4)cn3)nc2n(C2CCCC2)c1=O [Palbociclib] (partner 0.5 µM): the relative viability came out at 0.413.

Compound `C=C1C(=O)O[C@@H](CCCCCCCC)[C@@H]1C(=O)O` [C-75] + Nc1ncn([C@H]2C[C@H](O)[C@@H](CO)O2)c(=O)n1 [Decitabine] (partner 2 µM) registered a relative viability of 0.161.

The test system of the next test is LC-2-ad. Described as above. As to conditions: first compound 0.08 µM. Put shortly:
as §1
`Oc1nc(-c2ccc(C(F)(F)F)cc2)nc2c1CSCC2` [XAV939] + O=C(CCCCCCC(=O)Nc1ccccc1)NO [Vorinostat] (partner 1 µM): the relative viability was 0.735.

In turn, `Oc1nc(-c2ccc(C(F)(F)F)cc2)nc2c1CSCC2` [XAV939] + O=C(c1cc(Cc2n[nH]c(=O)c3ccccc23)ccc1F)N1CCN(C(=O)C2CC2)CC1 [Olaparib] (partner 8 µM) returned a relative viability of 0.659.

`Oc1nc(-c2ccc(C(F)(F)F)cc2)nc2c1CSCC2` [XAV939] + CC(=O)c1c(C)c2cnc(Nc3ccc(N4CCNCC4)cn3)nc2n(C2CCCC2)c1=O [Palbociclib] (partner 0.5 µM) registered a relative viability of 0.502.

`C=C1C(=O)O[C@@H](CCCCCCCC)[C@@H]1C(=O)O` [C-75] + CC(=O)c1c(C)c2cnc(Nc3ccc(N4CCNCC4)cn3)nc2n(C2CCCC2)c1=O [Palbociclib] (partner 0.5 µM) registered a relative viability of 0.555.

`C=C1C(=O)O[C@@H](CCCCCCCC)[C@@H]1C(=O)O` [C-75] + Nc1ncn([C@H]2C[C@H](O)[C@@H](CO)O2)c(=O)n1 [Decitabine] (partner 2 µM) displayed a relative viability of 0.785.

The test is the same for the next values; noted with them: first compound 0.253 µM.
In the case of `Oc1nc(-c2ccc(C(F)(F)F)cc2)nc2c1CSCC2` [XAV939] + O=C(CCCCCCC(=O)Nc1ccccc1)NO [Vorinostat] (partner 1 µM), the relative viability was 0.689.

In the case of `Oc1nc(-c2ccc(C(F)(F)F)cc2)nc2c1CSCC2` [XAV939] + O=C(c1cc(Cc2n[nH]c(=O)c3ccccc23)ccc1F)N1CCN(C(=O)C2CC2)CC1 [Olaparib] (partner 8 µM), the relative viability stood at 0.652.

In turn, `Oc1nc(-c2ccc(C(F)(F)F)cc2)nc2c1CSCC2` [XAV939] + CC(=O)c1c(C)c2cnc(Nc3ccc(N4CCNCC4)cn3)nc2n(C2CCCC2)c1=O [Palbociclib] (partner 0.5 µM) showed a relative viability of 0.397.

Compound `C=C1C(=O)O[C@@H](CCCCCCCC)[C@@H]1C(=O)O` [C-75] + CC(=O)c1c(C)c2cnc(Nc3ccc(N4CCNCC4)cn3)nc2n(C2CCCC2)c1=O [Palbociclib] (partner 0.5 µM) gave a relative viability of 0.474.

In turn, `C=C1C(=O)O[C@@H](CCCCCCCC)[C@@H]1C(=O)O` [C-75] + Nc1ncn([C@H]2C[C@H](O)[C@@H](CO)O2)c(=O)n1 [Decitabine] (partner 2 µM) returned a relative viability of 0.809.

The same test, now with this note: first compound 0.8 µM.
On to `Oc1nc(-c2ccc(C(F)(F)F)cc2)nc2c1CSCC2` [XAV939] + O=C(CCCCCCC(=O)Nc1ccccc1)NO [Vorinostat] (partner 1 µM), for which the relative viability was determined as 0.705.

For the compound `Oc1nc(-c2ccc(C(F)(F)F)cc2)nc2c1CSCC2` [XAV939] + O=C(c1cc(Cc2n[nH]c(=O)c3ccccc23)ccc1F)N1CCN(C(=O)C2CC2)CC1 [Olaparib] (partner 8 µM), the relative viability is 0.685.

In the case of `Oc1nc(-c2ccc(C(F)(F)F)cc2)nc2c1CSCC2` [XAV939] + CC(=O)c1c(C)c2cnc(Nc3ccc(N4CCNCC4)cn3)nc2n(C2CCCC2)c1=O [Palbociclib] (partner 0.5 µM), the relative viability amounted to 0.462.

Compound `C=C1C(=O)O[C@@H](CCCCCCCC)[C@@H]1C(=O)O` [C-75] + CC(=O)c1c(C)c2cnc(Nc3ccc(N4CCNCC4)cn3)nc2n(C2CCCC2)c1=O [Palbociclib] (partner 0.5 µM) showed a relative viability of 0.471.

In turn, `C=C1C(=O)O[C@@H](CCCCCCCC)[C@@H]1C(=O)O` [C-75] + Nc1ncn([C@H]2C[C@H](O)[C@@H](CO)O2)c(=O)n1 [Decitabine] (partner 2 µM) yielded a relative viability of 0.755.

These data come from the supplement of paper PMC10307832.
